Assay results: article PMC7093416, “Selective USP7 inhibition elicits cancer cell killing through a p53-dependent mechanism” (Scientific Reports, 2020)
Several values for one entry are separate records, joined by “and”; a condition that tells them apart may be missing. Equal entries are not always repeated.

Test system: panel of 484 cancer cell lines
Assay: PRISM cancer cell line profiling, 5 days
Assay type: cell-based
Parameters: Viability: scale not given here; AUC: unit not given beside the values
Description: Cancer cell line profiling was performed using the Broad’s PRISM platform. Cell treatment and data analysis were performed as described in Yu et al[42]. Raw Luminex signal was converted to AUC values for each cell line as described. The resulting AUC profile for each compound was modeled against DepMap using the limma package in R[71]. Because hotspot mutation analysis was performed against DepMap, TP53 annotations in Fig. 6c,d are directly from DepMap.

[1] = ISHIKAWAHERAKLIO02ER_ENDOMETRIUM, pert_dose 6.10E-04
[2] = ISTMES1_PLEURA, pert_dose 6.10E-04
[3] = J82_URINARY_TRACT, pert_dose 6.10E-04
[4] = JHOC5_OVARY, pert_dose 6.10E-04
[5] = JHOM1_OVARY, pert_dose 6.10E-04
[6] = JHOS2_OVARY, pert_dose 6.10E-04
[7] = JHUEM2_ENDOMETRIUM, pert_dose 6.10E-04
[8] = JMSU1_URINARY_TRACT, pert_dose 6.10E-04
[9] = K029AX_SKIN, pert_dose 6.10E-04
[10] = KMBC2_URINARY_TRACT, pert_dose 6.10E-04
[11] = KMRC1_KIDNEY, pert_dose 6.10E-04
[12] = KMRC3_KIDNEY, pert_dose 6.10E-04
[13] = KMRC20_KIDNEY, pert_dose 6.10E-04
[14] = KNS42_CENTRAL_NERVOUS_SYSTEM, pert_dose 6.10E-04
[15] = KNS60_CENTRAL_NERVOUS_SYSTEM, pert_dose 6.10E-04
[16] = KNS81_CENTRAL_NERVOUS_SYSTEM, pert_dose 6.10E-04
[17] = KP3_PANCREAS, pert_dose 6.10E-04
[18] = KPL1_BREAST, pert_dose 6.10E-04

## COc1ccc(C2=N[C@@H](c3ccc(Cl)cc3)[C@@H](c3ccc(Cl)cc3)N2C(=O)N2CCNC(=O)C2)c(OC(C)C)c1 [Nutlin-3A]
[1]
  MFI ISHIKAWAHERAKLIO02ER_ENDOMETRIUM: 17513 and 21089 and 23031 and 24710 and 21077
  Viability: 1.048
ISTMES1_PLEURA
  AUC: 0.8886
[2]
  MFI ISTMES1_PLEURA: 2566 and 2035 and 2347.5 and 2015 and 3109
  Viability: 1.235
ISTMES2_PLEURA
  AUC: 1.138
J82_URINARY_TRACT
  AUC: 1.1759
[3]
  MFI J82_URINARY_TRACT: 7594 and 8347 and 7959 and 7415.5 and 7720
  Viability: 1.013
JHH1_LIVER
  AUC: 0.9453
JHH1_LIVER, pert_dose 6.10E-04
  MFI JHH1_LIVER: 11573 and 10266 and 10186 and 11807 and 10726
  Viability: 1.394
JHH4_LIVER
  AUC: 1.013
JHH4_LIVER, pert_dose 6.10E-04
  MFI JHH4_LIVER: 1508 and 1417.5 and 1162 and 1639 and 865
  Viability: 1.304
JHH5_LIVER
  AUC: 1.1112
JHH5_LIVER, pert_dose 6.10E-04
  MFI JHH5_LIVER: 3002.5 and 2853 and 3080 and 1890 and 2323
  Viability: 1.08
JHH6_LIVER
  AUC: 1.195
JHH7_LIVER
  AUC: 1.097
JHH7_LIVER, pert_dose 6.10E-04
  MFI JHH7_LIVER: 18251 and 14971.5 and 12968 and 19915 and 22149.5
  Viability: 1.3367
JHOC5_OVARY
  AUC: 0.8963
[4]
  MFI JHOC5_OVARY: 1729 and 2155 and 2543 and 1875 and 1529
  Viability: 1.248
JHOM1_OVARY
  AUC: 1.061
[5]
  MFI JHOM1_OVARY: 10909 and 10588 and 11258 and 11487.5 and 8758
  Viability: 1.182
JHOS2_OVARY
  AUC: 1.199
[6]
  MFI JHOS2_OVARY: 8954 and 9206 and 9624 and 7221 and 11208
  Viability: 1.028
JHUEM2_ENDOMETRIUM
  AUC: 0.8108
[7]
  MFI JHUEM2_ENDOMETRIUM: 2855 and 2201 and 2113.5 and 2693 and 2731
  Viability: 1.224
JIMT1_BREAST
  AUC: 1.15
JIMT1_BREAST, pert_dose 6.10E-04
  MFI JIMT1_BREAST: 10595.5 and 12336 and 13040 and 10400 and 10776.5
JMSU1_URINARY_TRACT
  AUC: 1.157
[8]
  MFI JMSU1_URINARY_TRACT: 4527 and 4135 and 3123.5 and 5456 and 3525
  Viability: 1.215
K029AX_SKIN
  AUC: 1.078
[9]
  MFI K029AX_SKIN: 12564 and 8034.5 and 10939 and 12309 and 13968
  Viability: 1.186
KALS1_CENTRAL_NERVOUS_SYSTEM
  AUC: 1.089
KELLY_AUTONOMIC_GANGLIA
  AUC: 1.128
KELLY_AUTONOMIC_GANGLIA, pert_dose 6.10E-04
  Viability: 1.339
KMBC2_URINARY_TRACT
  AUC: 0.9038
[10]
  MFI KMBC2_URINARY_TRACT: 31608 and 32944 and 28231 and 28847.5 and 34382
  Viability: 1.231
KMRC1_KIDNEY
  AUC: 0.8619
[11]
  MFI KMRC1_KIDNEY: 5006 and 3553 and 4568 and 4375 and 4801
  Viability: 1.324
KMRC3_KIDNEY
  AUC: 1.059
[12]
  MFI KMRC3_KIDNEY: 29567 and 34290 and 33080.5 and 28662.5 and 32330
  Viability: 1.163
KMRC20_KIDNEY
  AUC: 1.075
[13]
  MFI KMRC20_KIDNEY: 6115 and 7240 and 5574 and 9127.5 and 7315
  Viability: 0.8672
KNS42_CENTRAL_NERVOUS_SYSTEM
  AUC: 1.094
[14]
  MFI KNS42_CENTRAL_NERVOUS_SYSTEM: 8504.5 and 8227 and 7874 and 8635.5 and 8359
  Viability: 1.265
KNS60_CENTRAL_NERVOUS_SYSTEM
  AUC: 1.169
[15]
  MFI KNS60_CENTRAL_NERVOUS_SYSTEM: 11444.5 and 12827 and 11109 and 11402 and 11624
  Viability: 1.1124
KNS62_LUNG
  AUC: 1.292
KNS62_LUNG, pert_dose 6.10E-04
  MFI KNS62_LUNG: 2968.5 and 3165 and 4343 and 4527 and 3128
  Viability: 1.098
KNS81_CENTRAL_NERVOUS_SYSTEM
  AUC: 0.9079
[16]
  MFI KNS81_CENTRAL_NERVOUS_SYSTEM: 11445 and 13291.5 and 12010.5 and 13242.5 and 18307.5
  Viability: 0.9016
KP2_PANCREAS
  AUC: 1.091
KP3_PANCREAS
  AUC: 1.107
[17]
  MFI KP3_PANCREAS: 17810 and 19047 and 22202 and 17616 and 20627.5
  Viability: 1.1325
KP4_PANCREAS
  AUC: 1.1795
KP4_PANCREAS, pert_dose 6.10E-04
  MFI KP4_PANCREAS: 27317.5 and 27770 and 29960.5 and 31578.5 and 28421.5
KPL1_BREAST
  AUC: 0.8742
[18]
  MFI KPL1_BREAST: 9781 and 14848 and 14727 and 9958 and 12061.5
  Viability: 0.9855
KU1919_URINARY_TRACT
  AUC: 0.8508
KURAMOCHI_OVARY
  AUC: 1.126
KYSE30_OESOPHAGUS
  AUC: 0.985
KYSE70_OESOPHAGUS
  AUC: 1.1193
KYSE140_OESOPHAGUS
  AUC: 1.1498
KYSE150_OESOPHAGUS
  AUC: 1.138
KYSE180_OESOPHAGUS
  AUC: 1.143
KYSE270_OESOPHAGUS
  AUC: 0.9726
KYSE410_OESOPHAGUS
  AUC: 1.088
KYSE510_OESOPHAGUS
  AUC: 0.9924
KYSE520_OESOPHAGUS
  AUC: 1.08
L33_PANCREAS
  AUC: 1.295
LC1SQSF_LUNG
  AUC: 1.142
